Assay results as given in ChEMBL document CHEMBL3108676, “Discovery of a Novel Class of Imidazo[1,2-a]Pyridines with Potent PDGFR Activity and Oral Bioavailability” (ACS Med Chem Lett, 2014).
In brackets after ≈: the same amount, converted by molar mass. Activity calls are given as the source filed them. The rule behind the calls is not given here.

Assays:
[1] = target: T1, Platelet-derived growth factor receptor beta (Mus musculus, UniProt P05622); assay: Inhibition of PDGF-induced PDGFRbeta phosphorylation in mouse NIH3T3 cells incubated for 1 hr prior to PDGF induction measured after 15 mins by fluorescence assay; format: cell-based
T1 sequence (P05622 whole entry): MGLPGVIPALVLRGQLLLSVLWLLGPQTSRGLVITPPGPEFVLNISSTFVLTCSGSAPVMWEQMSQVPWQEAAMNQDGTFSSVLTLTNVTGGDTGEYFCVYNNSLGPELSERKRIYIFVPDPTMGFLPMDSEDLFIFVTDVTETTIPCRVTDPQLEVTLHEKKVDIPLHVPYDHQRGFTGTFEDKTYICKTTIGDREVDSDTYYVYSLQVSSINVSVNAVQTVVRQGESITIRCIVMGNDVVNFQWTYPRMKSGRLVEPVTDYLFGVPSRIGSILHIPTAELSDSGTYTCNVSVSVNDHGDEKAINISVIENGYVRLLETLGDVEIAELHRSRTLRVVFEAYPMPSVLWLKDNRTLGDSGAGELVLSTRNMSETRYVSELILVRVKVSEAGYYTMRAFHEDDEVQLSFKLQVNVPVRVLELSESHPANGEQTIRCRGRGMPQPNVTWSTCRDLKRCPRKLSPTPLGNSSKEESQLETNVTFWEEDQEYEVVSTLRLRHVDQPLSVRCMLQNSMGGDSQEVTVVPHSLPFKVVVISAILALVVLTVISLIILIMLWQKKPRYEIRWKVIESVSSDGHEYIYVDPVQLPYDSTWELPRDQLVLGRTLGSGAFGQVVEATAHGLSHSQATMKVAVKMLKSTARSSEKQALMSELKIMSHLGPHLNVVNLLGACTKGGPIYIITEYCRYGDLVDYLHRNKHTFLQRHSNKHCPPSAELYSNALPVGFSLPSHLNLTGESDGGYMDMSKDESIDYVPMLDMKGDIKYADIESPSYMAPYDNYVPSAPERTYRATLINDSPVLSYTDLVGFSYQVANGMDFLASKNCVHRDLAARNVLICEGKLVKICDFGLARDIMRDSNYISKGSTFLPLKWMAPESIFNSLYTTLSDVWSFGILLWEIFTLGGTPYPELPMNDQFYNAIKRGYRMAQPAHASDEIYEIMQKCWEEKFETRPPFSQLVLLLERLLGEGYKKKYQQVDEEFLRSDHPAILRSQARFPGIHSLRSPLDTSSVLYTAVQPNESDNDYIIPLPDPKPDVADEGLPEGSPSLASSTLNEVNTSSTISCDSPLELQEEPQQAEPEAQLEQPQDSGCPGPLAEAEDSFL

[2] = target: Macrophage colony-stimulating factor 1 receptor (Homo sapiens, UniProt P07333)
Macrophage colony-stimulating factor 1 receptor, sequence (P07333 whole entry): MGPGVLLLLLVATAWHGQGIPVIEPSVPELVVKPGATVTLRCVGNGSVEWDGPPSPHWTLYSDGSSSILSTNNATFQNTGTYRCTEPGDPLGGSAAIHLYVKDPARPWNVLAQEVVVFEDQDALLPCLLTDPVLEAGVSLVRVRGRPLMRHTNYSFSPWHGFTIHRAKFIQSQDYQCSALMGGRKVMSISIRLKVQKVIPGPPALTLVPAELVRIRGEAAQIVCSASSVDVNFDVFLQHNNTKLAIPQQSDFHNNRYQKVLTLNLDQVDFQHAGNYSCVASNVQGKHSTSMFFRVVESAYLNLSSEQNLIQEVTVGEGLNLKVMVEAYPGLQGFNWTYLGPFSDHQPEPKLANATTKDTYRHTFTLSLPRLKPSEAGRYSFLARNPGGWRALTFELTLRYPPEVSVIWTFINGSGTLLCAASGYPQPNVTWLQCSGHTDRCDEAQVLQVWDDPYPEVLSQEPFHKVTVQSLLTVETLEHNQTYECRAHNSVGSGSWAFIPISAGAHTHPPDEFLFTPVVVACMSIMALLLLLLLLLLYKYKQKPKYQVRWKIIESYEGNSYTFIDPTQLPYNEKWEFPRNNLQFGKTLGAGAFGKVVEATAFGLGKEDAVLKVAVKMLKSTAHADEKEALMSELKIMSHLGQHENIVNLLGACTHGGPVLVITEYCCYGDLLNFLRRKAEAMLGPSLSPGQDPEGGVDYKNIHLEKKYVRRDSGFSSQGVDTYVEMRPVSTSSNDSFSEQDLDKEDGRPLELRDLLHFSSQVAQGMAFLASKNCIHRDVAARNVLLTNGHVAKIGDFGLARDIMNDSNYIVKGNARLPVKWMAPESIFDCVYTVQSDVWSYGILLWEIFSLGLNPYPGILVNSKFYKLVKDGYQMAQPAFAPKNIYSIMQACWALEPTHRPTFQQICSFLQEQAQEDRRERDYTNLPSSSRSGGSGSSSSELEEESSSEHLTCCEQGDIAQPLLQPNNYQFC
Description: Inhibition of cFMS (unknown origin)

[3] = target: T1, Platelet-derived growth factor receptor beta; assay: Inhibition of PDGF-induced PDGFRbeta phosphorylation in mouse NIH3T3 cells incubated for 1 hr prior to PDGF induction measured after 15 mins by fluorescence assay in presence of 50% human plasma; format: cell-based
Mus musculus [4] = assay: In vivo inhibition of PDGFR phosphorylation in tumor of nu/nu nude mouse xenografted with rat C6 cells at 10 to 100 mg/kg, po qd after 12 hrs; format: functional, organism-based
Mus musculus [5] = assay: In vivo inhibition of PDGFR phosphorylation in tumor of nu/nu nude mouse xenografted with rat C6 cells administered as po qd after 2 to 6 hrs; format: functional, organism-based
Cytochrome P450 1A2 = target: T2, Cytochrome P450 1A2 (Homo sapiens, UniProt P05177); assay: Inhibition of CYP1A2 (unknown origin); format: ADME
T2 sequence (P05177 whole entry): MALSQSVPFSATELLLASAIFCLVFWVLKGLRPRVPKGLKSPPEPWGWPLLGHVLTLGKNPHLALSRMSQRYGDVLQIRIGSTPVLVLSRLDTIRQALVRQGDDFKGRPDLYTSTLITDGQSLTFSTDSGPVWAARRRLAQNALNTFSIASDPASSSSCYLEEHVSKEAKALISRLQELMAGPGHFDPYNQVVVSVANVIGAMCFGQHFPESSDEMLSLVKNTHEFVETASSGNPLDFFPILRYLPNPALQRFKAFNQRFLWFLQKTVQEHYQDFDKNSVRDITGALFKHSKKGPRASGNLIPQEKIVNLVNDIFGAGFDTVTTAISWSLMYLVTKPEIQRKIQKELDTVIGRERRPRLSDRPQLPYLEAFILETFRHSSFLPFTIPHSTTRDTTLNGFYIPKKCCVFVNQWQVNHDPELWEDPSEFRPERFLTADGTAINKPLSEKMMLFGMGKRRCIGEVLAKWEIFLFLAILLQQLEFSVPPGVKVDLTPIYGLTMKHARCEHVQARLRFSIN

Cytochrome P450 2C9 = Cytochrome P450 2C9 (Homo sapiens, UniProt P11712); assay: Inhibition of CYP2C9 (unknown origin); format: ADME
Cytochrome P450 2C9, sequence (P11712 whole entry): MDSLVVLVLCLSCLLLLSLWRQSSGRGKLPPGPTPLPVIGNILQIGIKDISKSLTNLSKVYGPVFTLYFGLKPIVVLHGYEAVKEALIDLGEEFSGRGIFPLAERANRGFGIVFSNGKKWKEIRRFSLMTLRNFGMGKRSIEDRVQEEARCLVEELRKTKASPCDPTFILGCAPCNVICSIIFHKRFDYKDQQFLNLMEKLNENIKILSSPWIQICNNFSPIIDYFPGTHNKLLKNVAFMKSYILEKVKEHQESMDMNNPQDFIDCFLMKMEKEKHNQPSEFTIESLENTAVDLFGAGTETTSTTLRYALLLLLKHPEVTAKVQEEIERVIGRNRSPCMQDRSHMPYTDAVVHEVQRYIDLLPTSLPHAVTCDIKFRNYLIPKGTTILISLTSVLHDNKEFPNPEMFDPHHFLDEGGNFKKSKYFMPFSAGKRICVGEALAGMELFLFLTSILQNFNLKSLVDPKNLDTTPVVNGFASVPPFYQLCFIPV

[6] = target: Mast/stem cell growth factor receptor Kit (Homo sapiens, UniProt P10721); assay: Inhibition of cKIT (unknown origin)
Mast/stem cell growth factor receptor Kit, sequence (P10721 whole entry): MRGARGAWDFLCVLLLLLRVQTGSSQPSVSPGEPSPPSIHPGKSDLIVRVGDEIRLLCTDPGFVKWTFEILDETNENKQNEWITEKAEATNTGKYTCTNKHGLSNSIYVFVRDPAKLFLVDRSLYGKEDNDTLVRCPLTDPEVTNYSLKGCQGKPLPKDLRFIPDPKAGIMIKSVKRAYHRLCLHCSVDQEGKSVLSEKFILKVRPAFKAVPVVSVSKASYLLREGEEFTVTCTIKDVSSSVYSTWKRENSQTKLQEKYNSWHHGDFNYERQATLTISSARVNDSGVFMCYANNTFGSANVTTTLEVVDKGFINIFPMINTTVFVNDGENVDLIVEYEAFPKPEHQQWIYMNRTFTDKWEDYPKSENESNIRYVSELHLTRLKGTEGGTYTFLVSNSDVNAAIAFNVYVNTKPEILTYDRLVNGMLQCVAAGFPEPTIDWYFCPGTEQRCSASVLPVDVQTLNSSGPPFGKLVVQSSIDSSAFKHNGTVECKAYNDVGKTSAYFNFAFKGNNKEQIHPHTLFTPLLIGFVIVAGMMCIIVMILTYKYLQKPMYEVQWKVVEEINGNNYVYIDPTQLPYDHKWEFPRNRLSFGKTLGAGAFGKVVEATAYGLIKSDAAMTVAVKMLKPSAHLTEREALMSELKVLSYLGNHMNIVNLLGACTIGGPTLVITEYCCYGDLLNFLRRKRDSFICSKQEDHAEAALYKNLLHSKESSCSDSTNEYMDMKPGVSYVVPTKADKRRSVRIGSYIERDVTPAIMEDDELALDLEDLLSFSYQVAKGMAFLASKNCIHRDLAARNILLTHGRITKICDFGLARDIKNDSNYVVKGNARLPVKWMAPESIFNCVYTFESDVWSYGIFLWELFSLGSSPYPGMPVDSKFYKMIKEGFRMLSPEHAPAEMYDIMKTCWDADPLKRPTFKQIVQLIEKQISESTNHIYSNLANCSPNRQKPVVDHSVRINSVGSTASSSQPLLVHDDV

Cytochrome P450 2D6 = Cytochrome P450 2D6 (Homo sapiens, UniProt P10635); assay: Inhibition of CYP2D6 (unknown origin); format: ADME
Cytochrome P450 2D6, sequence (P10635 whole entry): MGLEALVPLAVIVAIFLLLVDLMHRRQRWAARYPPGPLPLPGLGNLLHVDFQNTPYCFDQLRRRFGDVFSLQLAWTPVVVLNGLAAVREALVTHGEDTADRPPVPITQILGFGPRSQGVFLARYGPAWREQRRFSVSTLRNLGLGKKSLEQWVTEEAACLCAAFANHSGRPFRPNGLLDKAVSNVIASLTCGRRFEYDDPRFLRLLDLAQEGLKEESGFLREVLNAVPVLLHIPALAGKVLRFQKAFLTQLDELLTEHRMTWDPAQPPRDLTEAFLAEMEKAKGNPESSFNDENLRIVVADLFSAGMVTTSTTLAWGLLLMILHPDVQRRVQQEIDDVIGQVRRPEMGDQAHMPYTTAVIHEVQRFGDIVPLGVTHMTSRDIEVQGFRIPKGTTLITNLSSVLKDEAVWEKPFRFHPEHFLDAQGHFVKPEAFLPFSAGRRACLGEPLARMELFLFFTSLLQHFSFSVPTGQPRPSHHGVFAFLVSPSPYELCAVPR

Cytochrome P450 2C19 = Cytochrome P450 2C19 (Homo sapiens, UniProt P33261); assay: Inhibition of CYP2C19 (unknown origin); format: ADME
Cytochrome P450 2C19, sequence (P33261 whole entry): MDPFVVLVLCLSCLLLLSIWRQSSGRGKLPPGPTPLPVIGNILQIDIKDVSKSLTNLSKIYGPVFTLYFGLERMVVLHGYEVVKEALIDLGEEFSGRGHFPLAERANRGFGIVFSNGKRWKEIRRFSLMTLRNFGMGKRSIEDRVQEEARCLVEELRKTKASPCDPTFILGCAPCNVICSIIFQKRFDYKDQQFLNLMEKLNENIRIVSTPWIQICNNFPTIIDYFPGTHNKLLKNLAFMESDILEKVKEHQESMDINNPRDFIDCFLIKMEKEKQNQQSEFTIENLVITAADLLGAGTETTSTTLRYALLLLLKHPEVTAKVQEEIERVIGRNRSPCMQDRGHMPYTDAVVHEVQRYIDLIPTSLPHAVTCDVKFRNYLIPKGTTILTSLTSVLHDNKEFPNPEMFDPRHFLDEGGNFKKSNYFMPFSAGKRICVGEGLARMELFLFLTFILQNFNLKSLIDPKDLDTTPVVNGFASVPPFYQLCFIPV

Cytochrome P450 3A4 = Cytochrome P450 3A4 (Homo sapiens, UniProt P08684); assay: Inhibition of CYP3A4 (unknown origin); format: ADME
Cytochrome P450 3A4, sequence (P08684 whole entry): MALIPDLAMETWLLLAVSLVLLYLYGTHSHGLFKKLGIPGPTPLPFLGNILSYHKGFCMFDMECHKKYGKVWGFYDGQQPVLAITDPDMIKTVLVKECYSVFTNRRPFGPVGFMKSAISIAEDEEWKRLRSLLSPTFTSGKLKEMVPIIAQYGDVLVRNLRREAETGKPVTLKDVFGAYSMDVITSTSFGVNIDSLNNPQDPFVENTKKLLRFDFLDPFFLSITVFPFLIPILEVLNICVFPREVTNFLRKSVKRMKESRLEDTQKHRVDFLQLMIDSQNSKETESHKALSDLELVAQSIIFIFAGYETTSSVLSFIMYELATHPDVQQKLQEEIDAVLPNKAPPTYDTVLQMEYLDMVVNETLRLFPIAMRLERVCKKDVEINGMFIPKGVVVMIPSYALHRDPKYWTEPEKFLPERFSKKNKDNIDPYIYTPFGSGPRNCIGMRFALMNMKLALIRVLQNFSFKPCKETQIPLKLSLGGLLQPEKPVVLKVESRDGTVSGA

[7] = Solubility of the compound; format: physicochemical
[8] = Dissociation constant, pKa of the compound; format: physicochemical
[9] = (§1) Apparent permeability across apical to basolateral side in pig LLC-PK1 cells; format: ADME, cell-based, Sus scrofa; settings: LLC-PK1
[10] = (§2) AUC in rat at 10 mg/kg, po; format: ADME, organism-based, Plasma; parameters: dose 10 mg/kg, route oral; settings: plasma
[11] = Clearance in rat at 1 mg/kg, iv; format: ADME, organism-based; parameters: dose 1 mg/kg, route intravenous; settings: in vivo
[12] = (§3) Oral bioavailability in rat at 10 mg/kg; format: ADME, organism-based; settings: in vivo
[13] = (§4) Cmax in rat at 10 mg/kg, po; format: ADME, organism-based; parameters: dose 10 mg/kg, route oral; settings: in vivo
MDR1 = assay: Apparent permeability across apical to basolateral side in pig LLC-PK1 cells expressing MDR1 assessed as compound recovery; format: ADME, cell-based, Sus scrofa; settings: read-out: Papp
Rattus norvegicus [14] = assay: as §2; format: ADME, organism-based, Plasma; parameters: dose 10 mg/kg, route oral; settings: in vivo
Rattus norvegicus [15] = assay: as §3; format: ADME, organism-based; settings: in vivo
Rattus norvegicus [16] = assay: as §4; format: ADME, organism-based; parameters: dose 10 mg/kg, route oral; settings: in vivo
[17] = Cmax in cynomolgus monkey at 30 mg/kg, po; format: ADME, organism-based, Macaca fascicularis; parameters: dose 30 mg/kg, route oral; settings: in vivo
[18] = target: Voltage-gated inwardly rectifying potassium channel KCNH2 (Homo sapiens, UniProt Q12809); assay: Inhibition of human ERG
LLC-PK1 = assay: as §1; format: ADME, cell-based, Sus scrofa; settings: llc-pk1
[19] = AUC in cynomolgus monkey at 30 mg/kg, po; format: ADME, organism-based, Macaca fascicularis; parameters: dose 30 mg/kg, route oral; settings: plasma
[20] = Oral bioavailability in cynomolgus monkey at 30 mg/kg; format: ADME, organism-based, Macaca fascicularis; settings: in vivo
Rattus norvegicus [21] = assay: Toxicity in rat up to 50 mg/kg, po bid administered for 2 weeks; format: organism-based; parameters: dose 50 mg/kg, route oral; settings: in vivo, 336 h

COCCOc1ccn2c(-c3ccc4cccc(O[C@H]5CCCNC5)c4n3)cnc2c1
IC50 [1]: 0.005 µM

COCCOc1ccn2c(-c3ccc4cccc(OC5CCN(C)CC5)c4n3)cnc2c1
IC50 [1]: 0.009 µM

COCCOc1ccn2c(-c3ccc4cccc(OCC5CNCCO5)c4n3)cnc2c1 (racemic)
IC50 [2]: > 1 µM | IC50 [1]: 0.16 µM

COCCOc1ccn2c(-c3ccc4cccc(O[C@@H]5CCCNC5)c4n3)cnc2c1
IC50 [1]: 0.072 µM

COCCOc1ccn2c(-c3ccc4cccc(OCC5(F)CCNCC5)c4n3)cnc2c1
IC50 [1]: 0.001 µM

COCCOc1ccn2c(-c3ccc4cccc(O[C@@H]5CCNC[C@@H]5O)c4n3)cnc2c1 (racemic)
IC50 [1]: 0.002 µM

COCCOc1ccn2c(-c3ccc4cccc(O[C@@H]5CN[C@H](C(=O)OC)C5)c4n3)cnc2c1
IC50 [2]: > 1 µM | IC50 [1]: > 1 µM

COCCOc1ccn2c(-c3ccc4cccc(OCc5cnc[nH]5)c4n3)cnc2c1
IC50 [2]: > 1 µM | IC50 [1]: > 1 µM

COCCOc1ccn2c(-c3ccc4cccc(OCC5CCNC5)c4n3)cnc2c1 (racemic)
IC50 [1]: 0.001 µM | IC50 [3]: 0.029 µM

COCCOc1ccn2c(-c3ccc4cccc(O[C@@H]5CNC[C@H]5OC)c4n3)cnc2c1 (racemic)
IC50 [2]: > 1 µM | IC50 [1]: 0.01 µM | IC50 [3]: > 1 µM

COCCOc1ccn2c(-c3ccc4cccc(OCCN)c4n3)cnc2c1
IC50 [2]: > 1 µM | IC50 [1]: 0.176 µM

COCCOc1ccn2c(-c3ccc4cccc(O[C@@H]5CCNC[C@H]5F)c4n3)cnc2c1 [listing 1 of 2 here]
inhibition (Mus musculus [4]): inactive | inhibition (Mus musculus [5]): Dose-dependent effect

COCCOc1ccn2c(-c3ccc4cccc(O[C@@H]5CCNC[C@H]5O)c4n3)cnc2c1 (racemic)
IC50 [1]: 0.003 µM

COCCOc1ccn2c(-c3ccc4cccc(O[C@H]5CCNC[C@@H]5F)c4n3)cnc2c1
IC50 (Cytochrome P450 1A2): > 10 µM | IC50 (Cytochrome P450 2C9): > 10 µM | IC50 [6]: 0.491 µM | IC50 [1]: 0.003 µM | IC50 (Cytochrome P450 2D6): > 10 µM | IC50 [3]: 0.055 µM | IC50 (Cytochrome P450 2C19): > 10 µM | IC50 (Cytochrome P450 3A4): > 10 µM

COCCOc1ccn2c(-c3ccc4cccc(OC5CCNCC5)c4n3)cnc2c1
IC50 [2]: > 1 µM | solubility [7]: > 1 mg/mL | IC50 (Cytochrome P450 1A2): > 10 µM | IC50 (Cytochrome P450 2C9): > 10 µM | pKa [8]: 9.3 | Papp A→B [9]: 163 nm/s | IC50 [6]: 0.961 µM | IC50 [1]: 0.003 µM | AUC [10]: 0.8 µg·h/mL | IC50 (Cytochrome P450 2D6): > 10 µM | clearance [11]: 1.98 L/h/kg | bioavailability [12]: 16% | IC50 [3]: 0.025 µM | Cmax [13]: 0.07 µg/mL | IC50 (Cytochrome P450 2C19): > 10 µM | IC50 (Cytochrome P450 3A4): > 10 µM | recovery (MDR1): 50%

COCCOc1ccn2c(-c3ccc4cccc(O[C@H]5CC[C@H](N)CC5)c4n3)cnc2c1
IC50 [2]: > 1 µM | IC50 [1]: 0.028 µM

COCCOc1ccn2c(-c3ccc4cccc(O[C@@H]5CCNC[C@@H]5F)c4n3)cnc2c1 (relative stereo)
IC50 (Cytochrome P450 1A2): > 10 µM | IC50 (Cytochrome P450 2C9): > 10 µM | pKa [8]: 7.5 | Papp A→B [9]: 27 nm/s | IC50 [6]: > 1 µM | IC50 [1]: 0.004 µM | AUC [10]: 0.73 µg·h/mL | IC50 (Cytochrome P450 2D6): 5.88 µM | clearance [11]: 1.68 L/h/kg | bioavailability [12]: 13% | IC50 [3]: 0.025 µM | Cmax [13]: 0.07 µg/mL | IC50 (Cytochrome P450 2C19): > 10 µM | IC50 (Cytochrome P450 3A4): > 10 µM | recovery (MDR1): 30%

COCCOc1ccn2c(-c3ccc4cccc(O[C@@H]5CCNC[C@H]5F)c4n3)cnc2c1 (relative stereo)
IC50 (Cytochrome P450 1A2): > 10 µM | IC50 (Cytochrome P450 2C9): > 10 µM | pKa [8]: 7.4 | Papp A→B [9]: 44 nm/s | IC50 [6]: 0.682 µM | IC50 [1]: 0.004 µM | AUC (Rattus norvegicus [14]): 2.1 µg·h/mL | IC50 (Cytochrome P450 2D6): > 10 µM | F (Rattus norvegicus [15]): 30% | IC50 [3]: 0.063 µM | Cmax (Rattus norvegicus [16]): 0.12 µg/mL | IC50 (Cytochrome P450 2C19): > 10 µM | IC50 (Cytochrome P450 3A4): > 10 µM | recovery (MDR1): 30%

COCCOc1ccn2c(-c3ccc4cccc(OCC(C)(C)CN)c4n3)cnc2c1
IC50 [6]: > 1 µM | IC50 [1]: 0.018 µM

COCCOc1ccn2c(-c3ccc4cccc(OCC5CCNCC5)c4n3)cnc2c1
IC50 [2]: > 1 µM | IC50 [1]: 0.034 µM

COCCOc1ccn2c(-c3ccc4cccc(O[C@@H]5CCNC[C@H]5F)c4n3)cnc2c1 [listing 2 of 2 here]
IC50 (Cytochrome P450 1A2): > 10 µM | IC50 (Cytochrome P450 2C9): > 10 µM | Cmax [17]: 0.19 µg/mL | IC50 [18]: 3.9 µM | Papp (LLC-PK1): 37 nm/s | IC50 [6]: 0.43 µM | AUC [19]: 0.95 µg·h/mL | bioavailability [20]: 6% | IC50 [1]: 0.003 µM | EC50 (Mus musculus [5]): 0.065 mg/L (≈ 0.149 µM) | AUC [10]: 2.3 µg·h/mL | IC50 (Cytochrome P450 2D6): > 10 µM | clearance [11]: 1.2 L/h/kg | bioavailability [12]: 28% | Activity (Rattus norvegicus [21]): Non-toxic | IC50 [3]: 0.07 µM | Cmax [13]: 0.16 µg/mL | IC50 (Cytochrome P450 2C19): > 10 µM

COCCOc1ccn2c(-c3ccc4cccc(O[C@H]5CN[C@H](C(=O)OC)C5)c4n3)cnc2c1
IC50 [2]: > 1 µM | IC50 [1]: 0.958 µM
